Active and inactive are the calls of the source. No cut-off for these calls is given here.
How the values were obtained:
Histamine H3 receptor [1] = molecular target: T1, Histamine H3 receptor (Homo sapiens, UniProt Q9Y5N1); experiment: Agonist activity at human H3 receptor expressed in CHO cells assessed as […] by measuring reduction in forskolin level incubated for 4 hrs by CRE/MRE-luciferase reporter gene assay; format: functional, cell-based
Histamine H3 receptor [2] = molecular target: T1, Histamine H3 receptor; experiment: Partial agonist activity at human H3 receptor stably transfected in CHO-DUKX cells assessed as […] by measuring reduction in forskolin level by HitHunter-cAMP assay relative to histamine; format: functional, cell-based
Histamine H3 receptor [3] = molecular target: T1, Histamine H3 receptor; experiment: Antagonist activity at human H3 receptor expressed in CHO cells assessed as decrease in cAMP accumulation by measuring increase in forskolin level incubated for 4 hrs in presence of histamine by CRE/MRE-luciferase reporter gene assay; format: functional, cell-based
Histamine H3 receptor [4] = molecular target: T1, Histamine H3 receptor; experiment: Displacement of bodilisant from recombinant human histamine H3 receptor stably transfected in HEK-293T cells membrane at 1 to 10 uM incubated for 60 mins by fluorescence-polarization assay; format: cell membranes; conditions: Cell membrane, dose 1-10 µM
Histamine H3 receptor [5] = molecular target: T1, Histamine H3 receptor; experiment: Agonist activity at human H3 receptor expressed in HEK293 cells preincubated for 30 mins followed by [35S]-GTPgammaS addition and measured after 30 mins by liquid scintillation counting method; format: functional, cell-based; conditions: time 60.0 min
Histamine H3 receptor [6] = molecular target: T1, Histamine H3 receptor; experiment: Displacement of [3H]Nalpha-methylhistamine from recombinant human histamine H3 receptor stably transfected in HEK-293T cells membrane incubated for 90 mins by scintillation counting method; format: cell membranes, Cell membrane
Histamine H3 receptor [7] = molecular target: T1, Histamine H3 receptor; experiment: Antagonist activity at human H3 receptor expressed in HEK293 cells assessed as reversion of (R)alpha-MeHA induced activity preincubated for 30 mins followed by [35S]-GTPgammaS addition and measured after 30 mins by liquid scintillation counting method; format: functional, cell-based; conditions: filed as antagonist, time 60.0 min

T1 sequence (Q9Y5N1 whole entry): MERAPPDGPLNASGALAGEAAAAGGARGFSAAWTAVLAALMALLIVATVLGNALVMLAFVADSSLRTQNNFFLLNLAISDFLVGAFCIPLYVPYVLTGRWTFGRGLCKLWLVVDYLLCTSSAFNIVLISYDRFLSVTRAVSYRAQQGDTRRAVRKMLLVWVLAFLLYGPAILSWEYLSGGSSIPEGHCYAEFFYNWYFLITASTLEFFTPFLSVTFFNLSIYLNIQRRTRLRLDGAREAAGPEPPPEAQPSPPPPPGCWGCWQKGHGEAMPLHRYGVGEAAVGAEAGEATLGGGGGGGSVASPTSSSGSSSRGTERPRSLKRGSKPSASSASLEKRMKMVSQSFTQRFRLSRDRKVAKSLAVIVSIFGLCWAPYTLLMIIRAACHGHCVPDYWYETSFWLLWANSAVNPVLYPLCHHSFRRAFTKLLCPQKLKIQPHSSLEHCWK

N=C(N)SCCc1cnc[nH]1 [IMETIT]
EC50 (Histamine H3 receptor [1]): 2.9 nM

COc1cc(NC2(c3cccc(Cl)c3)C(=O)N(C(C)(C)C)C(=O)C2=Cc2ccccc2)cc(OC)c1OC (centres undefined)
Ratio (Histamine H3 receptor [2]): 0.14
Activity (Histamine H3 receptor [3]): inactive
Activity (Histamine H3 receptor [4]): inactive
Activity (Histamine H3 receptor [5]): inactive
Ki (Histamine H3 receptor [6]): 3200 nM
Activity (Histamine H3 receptor [7]): Active

CC1=CC(C)=[N+]2C1=C(c1ccc(OCCCN3CCCCC3)cc1)c1c(C)cc(C)n1[B-]2(F)F
Kd (Histamine H3 receptor [6]): 1.9 nM

Clc1ccc(CCCOCCCN2CCCCC2)cc1
Activity (Histamine H3 receptor [4]; filed as antagonist): Active
